Activity calls are given as the source filed them.
Columns and labels:
[1] = target: T1, Corticotropin-releasing factor receptor 2/Corticotropin-releasing factor-binding protein (Homo sapiens, UniProt P24387+Q13324); experiment: Dose Response confirmation of uHTS hits for small molecule antagonists of the CRF-binding protein and CRF-R2 receptor complex.; type: functional; conditions: read-out: IC50_Mean
T1 sequence (Q13324 whole entry): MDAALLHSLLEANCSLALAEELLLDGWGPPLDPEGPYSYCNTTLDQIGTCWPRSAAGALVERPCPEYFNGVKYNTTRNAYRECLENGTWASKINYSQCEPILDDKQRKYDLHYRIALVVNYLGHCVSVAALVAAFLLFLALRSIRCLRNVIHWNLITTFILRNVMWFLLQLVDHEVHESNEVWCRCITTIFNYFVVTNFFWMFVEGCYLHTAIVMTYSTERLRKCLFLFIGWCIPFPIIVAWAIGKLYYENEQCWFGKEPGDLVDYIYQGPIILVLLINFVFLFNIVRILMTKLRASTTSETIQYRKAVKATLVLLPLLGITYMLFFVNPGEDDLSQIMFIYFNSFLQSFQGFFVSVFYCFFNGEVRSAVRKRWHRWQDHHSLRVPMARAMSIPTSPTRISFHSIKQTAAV
T1 sequence (P24387 whole entry): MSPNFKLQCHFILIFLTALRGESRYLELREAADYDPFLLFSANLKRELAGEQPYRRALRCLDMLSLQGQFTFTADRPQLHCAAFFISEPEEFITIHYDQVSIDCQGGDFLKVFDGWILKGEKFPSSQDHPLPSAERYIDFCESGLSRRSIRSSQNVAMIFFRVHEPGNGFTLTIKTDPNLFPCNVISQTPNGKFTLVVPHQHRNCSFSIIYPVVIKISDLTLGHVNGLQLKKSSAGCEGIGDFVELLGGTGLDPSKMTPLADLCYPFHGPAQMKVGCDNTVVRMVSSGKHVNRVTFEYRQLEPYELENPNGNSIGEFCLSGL

[2] = target: T1, Corticotropin-releasing factor receptor 2/Corticotropin-releasing factor-binding protein; experiment: activators of CRF receptor 2 with binding protein – uHTS hits, confirmation (AID 602473); type: functional; conditions: read-out: EC50_Mean
Protein skinhead-1 = target: T2, Protein skinhead-1 (Caenorhabditis elegans, UniProt P34707); type: functional
T2 sequence (P34707 whole entry): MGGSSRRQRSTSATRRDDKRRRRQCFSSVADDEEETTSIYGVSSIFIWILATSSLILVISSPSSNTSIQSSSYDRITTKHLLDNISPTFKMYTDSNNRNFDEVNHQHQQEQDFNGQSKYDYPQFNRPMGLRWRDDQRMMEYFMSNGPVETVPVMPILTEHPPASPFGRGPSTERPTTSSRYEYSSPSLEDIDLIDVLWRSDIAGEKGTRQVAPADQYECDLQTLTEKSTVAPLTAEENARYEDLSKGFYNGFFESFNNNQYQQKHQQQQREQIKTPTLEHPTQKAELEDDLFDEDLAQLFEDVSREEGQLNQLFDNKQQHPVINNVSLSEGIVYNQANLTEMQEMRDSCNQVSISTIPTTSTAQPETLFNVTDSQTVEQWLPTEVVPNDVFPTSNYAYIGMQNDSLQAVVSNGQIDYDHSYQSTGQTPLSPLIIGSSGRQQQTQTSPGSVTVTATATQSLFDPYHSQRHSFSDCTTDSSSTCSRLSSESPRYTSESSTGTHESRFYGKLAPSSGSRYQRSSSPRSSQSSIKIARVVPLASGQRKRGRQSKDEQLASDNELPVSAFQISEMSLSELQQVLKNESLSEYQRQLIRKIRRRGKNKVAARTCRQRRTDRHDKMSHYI

[3] = Luminescence Cell-Based Dose Response HTS to Identify Activators of Luciferase Translation or Activity in H4 […] Cells. [Related pubchem assays: 1829 (Project Summary), 1814 (Primary HTS)]; type: functional
H4 = experiment: Luminescence Cell-Based Dose Response HTS to Identify Activators of 5'UTR Stem-Loop Driven Prion Protein mRNA Translation in H4 Neuroglioblastoma Cells. [Related pubchem assays: 1829 (Project Summary), 1814 (Primary HTS)]; type: functional; conditions: Homo sapiens
[4] = target: Eukaryotic translation initiation factor 4E (Mus musculus, UniProt P63073); experiment: blockers of eIF4G binding by eIF4E – biochemical, TR-FRET, dose response (AID 855); type: functional;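 also: potency for disrupting eIF4E binding to eIF4GI seen as loss of FRET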
Large T antigen = Large T antigen (Simian virus 40, UniProt P03070); type: functional, Betapolyomavirus macacae;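 also: Confirmatory-stage PubChem screen for compounds that inhibit SV40 T antigen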
cells = type: functional
H9c2 = experiment: cells; type: functional, cell-based; conditions: Rattus norvegicus, H9c2, Myocardium
[5] = target: T3, Rac GTPase-activating protein 1 (Homo sapiens, UniProt Q9H0H5); experiment: blockers of MgcRacGAP-driven Rac1 GTP hydrolysis – biochemical, ADP Hunter fluorescence, primary and confirmatory, confirmation (AID 624330); type: functional
T3 sequence (Q9H0H5 whole entry): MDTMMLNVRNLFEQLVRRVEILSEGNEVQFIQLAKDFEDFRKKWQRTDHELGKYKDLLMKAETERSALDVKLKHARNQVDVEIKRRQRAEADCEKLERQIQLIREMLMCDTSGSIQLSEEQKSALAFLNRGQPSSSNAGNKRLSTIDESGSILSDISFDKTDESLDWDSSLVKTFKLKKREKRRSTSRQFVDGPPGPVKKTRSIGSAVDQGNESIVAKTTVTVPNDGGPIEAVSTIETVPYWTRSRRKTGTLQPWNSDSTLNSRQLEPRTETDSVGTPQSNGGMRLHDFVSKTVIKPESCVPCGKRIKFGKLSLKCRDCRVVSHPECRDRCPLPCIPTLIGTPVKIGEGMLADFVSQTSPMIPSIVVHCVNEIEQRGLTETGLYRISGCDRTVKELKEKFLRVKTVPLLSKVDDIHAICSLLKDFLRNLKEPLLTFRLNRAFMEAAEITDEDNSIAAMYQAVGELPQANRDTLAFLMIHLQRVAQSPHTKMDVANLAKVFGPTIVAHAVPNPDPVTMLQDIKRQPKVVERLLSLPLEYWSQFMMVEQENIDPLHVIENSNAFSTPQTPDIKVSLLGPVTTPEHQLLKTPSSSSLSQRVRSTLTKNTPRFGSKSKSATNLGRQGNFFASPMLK

Cytochrome P450 2D6 = Cytochrome P450 2D6 (Homo sapiens, UniProt P10635);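 also: CYP2D6 member of a cytochrome P450 panel assay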
Cytochrome P450 1A2 = target: T4, Cytochrome P450 1A2 (Homo sapiens, UniProt P05177);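 also: PubChem cytochrome P450 panel assay, CYP1A2 panel member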
T4 sequence (P05177 whole entry): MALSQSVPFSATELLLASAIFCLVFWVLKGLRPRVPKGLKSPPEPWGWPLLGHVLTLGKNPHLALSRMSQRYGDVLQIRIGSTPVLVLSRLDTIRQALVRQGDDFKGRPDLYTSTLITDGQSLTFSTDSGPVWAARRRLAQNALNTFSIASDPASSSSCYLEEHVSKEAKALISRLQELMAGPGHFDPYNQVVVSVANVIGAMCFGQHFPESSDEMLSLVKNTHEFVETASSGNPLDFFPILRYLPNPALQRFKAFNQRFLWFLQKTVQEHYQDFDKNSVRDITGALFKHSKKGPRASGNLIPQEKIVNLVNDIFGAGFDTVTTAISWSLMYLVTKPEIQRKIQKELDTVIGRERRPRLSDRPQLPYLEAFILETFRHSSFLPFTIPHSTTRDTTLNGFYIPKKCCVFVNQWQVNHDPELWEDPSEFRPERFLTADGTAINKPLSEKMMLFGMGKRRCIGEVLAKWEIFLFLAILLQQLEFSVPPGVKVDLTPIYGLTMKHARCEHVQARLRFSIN

[6] = target: FAD-linked sulfhydryl oxidase ALR (Homo sapiens, UniProt P55789); experiment: ALR-catalysed DTT oxidation blockers – biochemical, H2O2 detection, luminescence, cherry-pick, dose response (AID 493248)
FAD-linked sulfhydryl oxidase ALR, sequence (P55789 whole entry): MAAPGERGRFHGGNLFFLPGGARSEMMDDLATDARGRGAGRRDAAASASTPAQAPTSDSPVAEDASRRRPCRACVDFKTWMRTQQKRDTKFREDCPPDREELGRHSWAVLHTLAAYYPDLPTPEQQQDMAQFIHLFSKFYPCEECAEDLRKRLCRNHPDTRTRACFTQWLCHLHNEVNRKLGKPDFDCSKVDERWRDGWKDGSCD

Large T antigen, sequence (P03070 whole entry): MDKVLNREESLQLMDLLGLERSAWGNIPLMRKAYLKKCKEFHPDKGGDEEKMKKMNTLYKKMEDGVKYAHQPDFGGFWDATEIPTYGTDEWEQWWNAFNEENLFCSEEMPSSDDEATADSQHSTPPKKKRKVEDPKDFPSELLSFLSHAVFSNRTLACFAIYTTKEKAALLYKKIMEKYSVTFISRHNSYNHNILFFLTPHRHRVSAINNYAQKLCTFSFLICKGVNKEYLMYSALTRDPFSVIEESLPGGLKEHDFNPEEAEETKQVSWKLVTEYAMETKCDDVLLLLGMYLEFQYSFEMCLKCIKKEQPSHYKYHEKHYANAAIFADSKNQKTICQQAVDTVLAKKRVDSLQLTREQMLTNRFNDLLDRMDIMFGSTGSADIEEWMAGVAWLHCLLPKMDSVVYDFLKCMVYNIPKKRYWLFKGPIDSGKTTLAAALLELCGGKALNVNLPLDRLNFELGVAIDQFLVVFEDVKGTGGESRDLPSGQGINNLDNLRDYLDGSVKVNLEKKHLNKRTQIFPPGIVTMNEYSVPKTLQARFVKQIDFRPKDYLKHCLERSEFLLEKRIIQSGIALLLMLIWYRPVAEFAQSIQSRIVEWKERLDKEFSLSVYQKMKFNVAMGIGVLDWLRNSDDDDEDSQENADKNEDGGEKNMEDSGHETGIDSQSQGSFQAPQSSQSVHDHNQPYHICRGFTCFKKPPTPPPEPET
Eukaryotic translation initiation factor 4E, sequence (P63073 whole entry): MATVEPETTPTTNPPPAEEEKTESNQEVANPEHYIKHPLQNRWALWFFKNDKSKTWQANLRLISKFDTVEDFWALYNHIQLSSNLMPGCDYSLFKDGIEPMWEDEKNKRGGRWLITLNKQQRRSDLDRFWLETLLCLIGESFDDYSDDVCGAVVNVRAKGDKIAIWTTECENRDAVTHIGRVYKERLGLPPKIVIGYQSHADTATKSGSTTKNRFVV
Cytochrome P450 2D6, sequence (P10635 whole entry): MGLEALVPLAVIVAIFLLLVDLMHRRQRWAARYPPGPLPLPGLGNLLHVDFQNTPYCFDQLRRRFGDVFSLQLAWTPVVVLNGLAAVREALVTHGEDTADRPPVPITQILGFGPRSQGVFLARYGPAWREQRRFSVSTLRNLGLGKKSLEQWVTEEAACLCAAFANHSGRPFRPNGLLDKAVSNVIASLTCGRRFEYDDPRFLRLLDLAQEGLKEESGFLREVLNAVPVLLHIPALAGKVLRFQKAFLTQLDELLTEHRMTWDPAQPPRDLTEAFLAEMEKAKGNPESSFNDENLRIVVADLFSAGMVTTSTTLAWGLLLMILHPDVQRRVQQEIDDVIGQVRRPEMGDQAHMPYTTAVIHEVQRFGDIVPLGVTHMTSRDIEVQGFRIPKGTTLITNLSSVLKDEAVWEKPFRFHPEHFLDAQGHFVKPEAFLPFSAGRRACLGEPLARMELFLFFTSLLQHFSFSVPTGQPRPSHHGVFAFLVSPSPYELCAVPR

## CC1C(=O)C(C)C(c2cc(Br)ccc2O)NC1c1cc(Br)ccc1O (centres undefined)
[1]
  IC50: > 47.1 µM (inactive)
[2]
  EC50: > 53 µM (inactive)

## O=C(NCCO)c1cccc(-c2ccc3nncn3c2)c1
Protein skinhead-1
  IC50: > 100 µM (inactive)

## O=C(CCn1nc(-c2ccccc2)ccc1=O)N1CCOCC1
[1]
  IC50: > 47.1 µM (inactive)
[2]
  EC50: > 53 µM (inactive)

## NC(=O)c1ccccc1/N=C/c1ccc2ccccc2c1
[3]
  EC50: 1.14 µM (active)
H4
  EC50: 197 nM (active)

## CCOc1ccc(OCC)c(NC(=O)CSCC(=O)O)c1
Protein skinhead-1
  IC50: > 100 µM (inactive)

## Cc1cccc([N+]2=C3CCCCN3C(O)(c3cccs3)C2)c1 (centres undefined)
[1]
  IC50: > 47.1 µM (inactive)
[2]
  EC50: > 53 µM (inactive)

## O=C(c1ccccc1)c1cnc2cc3c(cc2c1O)OCCO3
Protein skinhead-1
  IC50: > 100 µM (inactive)

## Cc1cc(N2CCOCC2)n2nc(C)c(-c3ccccc3)c2n1
[4]
  IC50: > 64 µM (inactive)

## CCNC(S)=Nc1cc(OCC)c(N2CCOCC2)cc1OCC
Large T antigen
  IC50: > 100 µM (active)

## CCOC(=O)N1CCN(C(=O)CSc2nnc(CNC(=O)c3ccccc3F)o2)CC1
[1]
  IC50: > 47.1 µM (inactive)
[2]
  EC50: > 53 µM (inactive)

## CCC(=O)c1ccc(OCC(=O)OCC(=O)c2cc(C)n(C3CC3)c2C)cc1
cells
  IC50: 9.8 µM (active)

## CN(C)c1ccc(NC(=O)c2ccc(N3CCOCC3)nc2)cc1
Large T antigen
  IC50: 6.98 µM (active)

## Cc1ccc(S(=O)(=O)Nc2cc(O)nc(SCC(=O)Nc3cccc(C(F)(F)F)c3)n2)cc1
[1]
  IC50: > 47.1 µM (inactive)
[2]
  EC50: > 53 µM (inactive)

## CCOC(=O)COc1ccc(C2CC(C)=NN2c2ccccc2)cc1 (centres undefined)
cells
  IC50: 4.31 µM (active)

## c1cc2c(nn1)CCc1nonc1-2
Protein skinhead-1
  IC50: > 100 µM (inactive)

## CCOC(=O)C1=NN(C(=O)c2ccco2)C2(CC2)C1
H9c2
  IC50: > 79 µM (inactive)

## CCO/C(O)=C1/C(C)=NC(SCC(=O)OC)=C(C#N)C1c1ccc(C(=O)OC)cc1 (centres undefined)
[1]
  IC50: < 0.368 µM (active)
[2]
  EC50: > 53 µM (inactive)

## Sc1nnc(-c2ccco2)n1/N=C/c1ccc(Br)s1
[4]
  IC50: > 64 µM (inactive)

## O=C(NCCN1C(=O)C2C3C=CC(C3)C2C1=O)Nc1ccccc1O (centres undefined)
Protein skinhead-1
  IC50: > 100 µM (inactive)

## O=[N+]([O-])c1cc(-c2nnc(O)c3ccccc23)ccc1NCCO
H9c2
  IC50: 16.6 µM (active)

## COc1cc(/C=N/Nc2nc(N3CCCC3)nc(N3CCCC3)n2)ccc1O
[5]
  IC50: 64.3 µM (active)
Large T antigen
  IC50: 15.2 µM (active)

## CCNc1nc(NC(C)CC)nc(Oc2ccc(OCC)nn2)n1 (centres undefined)
[1]
  IC50: > 47.1 µM (inactive)
[2]
  EC50: > 53 µM (inactive)

## CCN(C(=O)c1ccco1)c1nc(-c2ccc(OC)cc2)cs1
Protein skinhead-1
  IC50: > 100 µM (inactive)

## CN1CCC(O)(c2ccccc2)C(C(=O)c2ccccc2)C1 (centres undefined)
cells
  IC50: 36.1 µM (active)

## COc1cc(-c2cc3nc(NCCOc4ccccc4)ccn3n2)cc(OC)c1OC
H9c2
  IC50: > 79 µM (inactive)

## COc1ccc(C(=O)ON=C(N)Cc2ccc(Cl)c(Cl)c2)cc1OC
[1]
  IC50: 7.41 µM (active)
[2]
  EC50: > 53 µM (inactive)

## COC(=O)CC(=O)N1CCN(c2ccc(Cl)c(Cl)c2)CC1
cells
  IC50: 25.5 µM (active)

## Cc1ccc2c([N+](=O)[O-])c(C)ccc2n1
Protein skinhead-1
  IC50: > 100 µM (inactive)

## Cc1sc2nc(CSCC(=O)N(CCC#N)c3ccccc3F)nc(O)c2c1C
H9c2
  IC50: > 79 µM (inactive)

## CC1CN(C(=O)c2cccs2)CCN1C(=O)c1cccs1 (centres undefined)
Protein skinhead-1
  IC50: > 100 µM (inactive)

## COc1cc(OC)cc(OC(=O)c2ccc3c(=O)n4c(nc3c2)CCC4)c1
cells
  IC50: 9.14 µM (active)

## O=C1CCc2nc3ccccc3c(=O)n2N1
[1]
  IC50: > 47.1 µM (inactive)
[2]
  EC50: > 53 µM (inactive)

## CCc1ccc(NC(=O)c2ccccc2NC(=O)C2CCCO2)cc1 (centres undefined)
H4
  EC50: 2640 nM (active)

## CCCCOc1ccc(C(=O)N/C(=C\c2ccc(OC)cc2)C(=O)OCc2ccco2)cc1
Cytochrome P450 2D6
  AC50: 7.94 µM (inconclusive)
H9c2
  IC50: > 79 µM (inactive)
Cytochrome P450 1A2
  AC50: 14.1 µM (inconclusive)

## CN(C)c1ccc(NC(=O)CSc2nc3c(c(=O)[nH]2)CCCC3)cc1
Large T antigen
  IC50: 5.87 µM (active)

## COCc1c(C(=O)Nc2ccc3nc(N4CCOCC4)sc3c2)oc2ccccc12
H9c2
  IC50: > 79 µM (inactive)

## CN1CCN(c2ccc(NC(=O)c3ccc(Oc4ccccc4)cc3)cc2)CC1
Protein skinhead-1
  IC50: 23.6 µM (active)

## CC(C)(C)n1nnnc1C(c1ccncc1)N1CCN(c2ccc(O)cc2)CC1 (centres undefined)
Large T antigen
  IC50: 13.9 µM (active)
[6]
  AC50: 3.48 µM (active)

## O=C(CSc1nnc(-c2ccccc2)n1C1CCCCC1)Nc1ccc(S(=O)(=O)Nc2ccccn2)cc1
[4]
  IC50: > 64 µM (inactive)

## O=C1CN(C(=O)c2cccs2)c2ccccc2N1
[4]
  IC50: > 64 µM (inactive)

Source: ChEMBL document CHEMBL1201862, “PubChem BioAssay data set” (2004)
